Structures are written as SMILES. Marks after values point to notes of the source that are not given here.

The target in the first assay is T1, recombinant Axl tyrosine kinase (Homo sapiens, UniProt P30530).
T1 construct: encompassing amino acids 473 to 894 of Axl; GST (N); made in house; host or cells: SF126 insect cells
T1 sequence (P30530 473-894): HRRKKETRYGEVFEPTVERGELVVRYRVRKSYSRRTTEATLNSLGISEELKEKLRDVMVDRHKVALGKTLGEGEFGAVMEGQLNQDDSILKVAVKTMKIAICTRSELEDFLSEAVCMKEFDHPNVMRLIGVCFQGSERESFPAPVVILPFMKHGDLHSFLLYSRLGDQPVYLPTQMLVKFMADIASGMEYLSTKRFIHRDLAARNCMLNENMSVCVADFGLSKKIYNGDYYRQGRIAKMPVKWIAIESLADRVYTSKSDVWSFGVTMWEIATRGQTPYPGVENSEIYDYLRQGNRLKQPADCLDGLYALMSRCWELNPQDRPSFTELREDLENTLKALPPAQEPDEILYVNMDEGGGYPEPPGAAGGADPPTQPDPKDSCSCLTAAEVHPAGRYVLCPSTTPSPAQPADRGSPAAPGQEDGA
Put plainly: In vitro Axl kinase assay (AlphaScreen), Test (a). It counts as biochemical. The note with it: 1 μM; mean calculated from a larger number of replicates than the first value. The method, then:
Test compounds were prepared as 10 mM stock solutions in dimethylsulphoxide (DMSO) and diluted in DMSO as required. Aliquots (120 nl) of compound dilutions were filled into the wells of a Greiner 384-well low volume (LV) white polystyrene plate (Greiner Bio-one) using acoustic dispensing (Labcyte Echo 550). A 10 μl mixture of recombinant purified Axl enzyme, biotinylated peptide substrate (Biotin poly-GAT; CisBio, Catalogue No. 61GATBLB), 0.2 μM adenosine triphosphate (ATP) and a buffer solution [comprising 20 mM Tris-HCl pH 7.5 buffer, 0.01% v/v Tween, 5 mM dithiothreitol (DTT) and 10 mM manganese chloride] was incubated with the compounds at room temperature for 20 minutes.
Control wells that produced a minimum signal corresponding to 100% inhibited enzyme were created by adding 10 μM of Staurosporine.
The percentage kinase inhibition value is the percentage of Axl tyrosine kinase activity inhibited by the test compound at a concentration of 1 μM.
As for `Nc1ncc(-c2cccc(N3CCOCC3)c2)cc1-c1nc2cnccc2o1` [Example 8A.4], the “% Axl tyrosine kinase inhibition at 1 μM concentration (second value, †)” value is on record as 86.6%.

Consider `Nc1ncc(-c2ccc(CN3CCOCC3)cc2)cc1-c1nc2cnccc2o1` [Example 8A.18], for which the “% Axl tyrosine kinase inhibition at 1 μM concentration (second value, †)” value is listed as 99.0%.

The same assay, now with this note: 1 μM; mean calculated from a larger number of replicates than the first value; read-out: % Axl tyrosine kinase inhibition at 1 μM concentration (second value, †).
For `CN1CCC(n2cc(-c3cnc(N)c(-c4nc5ccccc5o4)c3)cn2)CC1` [Example 3, 3-(1,3-Benzoxazol-2-yl)-5-[1-(1-methyl-4-piperidyl)pyrazol-4-yl]pyridin-2-amine], the inhibition at 1 µM is 99.8%.

The same assay, now with this note: test compound at 1 μM; first value quoted.
Turning to `CN1CCN(c2ccc(-c3cnc(N)c(-c4nc5ccccc5o4)c3)cn2)CC1` [Example 2.54], the “% Axl tyrosine kinase inhibition at 1 μM concentration” value stood at 99.8%.

As for `CCN1CCC(n2cc(-c3cnc(N)c(-c4nc5ccccc5o4)c3)cn2)CC1` [Example 4.1], the “% Axl tyrosine kinase inhibition at 1 μM concentration” value stood at 100.0%.

As to `CN1CCC(n2cc(-c3cnc(N)c(-c4nc5cc(F)ccc5o4)c3)cn2)CC1` [Example 7.1], the “% Axl tyrosine kinase inhibition at 1 μM concentration” value stood at 99.9%.

On to `CC(C)c1ccc2nc(-c3cc(-c4cnn(C5CCN(C)CC5)c4)cnc3N)oc2c1` [Example 7.4], for which the “% Axl tyrosine kinase inhibition at 1 μM concentration” value is listed as 99.6%. Same read-out and setting: next, `CN1CCC(n2cc(-c3cnc(N)c(-c4nc5cc(Br)ccc5o4)c3)cn2)CC1` [Example 7.5]: 99.1%; `CN1CCC(n2cc(-c3cnc(N)c(-c4nc5c(F)cc(F)cc5o4)c3)cn2)CC1` [Example 7.6]: 99.9%; `CN1CCC(n2cc(-c3cnc(N)c(-c4nc5ccc(Cl)cc5o4)c3)cn2)CC1` [Example 7.7]: 99.0%. For `Cc1ccc2nc(-c3cc(-c4cnn(C5CCN(C)CC5)c4)cnc3N)oc2c1` [Example 7.9], the “% Axl tyrosine kinase inhibition at 1 μM concentration” value is listed as 99.7%.

On to `CN1CCC(n2cc(-c3cnc(N)c(-c4nc5ccc(OC(F)(F)F)cc5o4)c3)cn2)CC1` [Example 7.10], for which the “% Axl tyrosine kinase inhibition at 1 μM concentration” value amounted to 95.7%. `CN1CCC(n2cc(-c3cnc(N)c(-c4nc5cc(C(F)(F)F)ccc5o4)c3)cn2)CC1` [Example 7.11]: the “% Axl tyrosine kinase inhibition at 1 μM concentration” value is listed as 98.1%. For `Nc1ncc(-c2cccc(CN3CCCC3)c2)cc1-c1nc2cnccc2o1` [Example 8A.1], the “% Axl tyrosine kinase inhibition at 1 μM concentration” value turned out to be 95.6%. In the case of `Nc1ncc(-c2ccc(S(=O)(=O)NCCO)cc2)cc1-c1nc2cnccc2o1` [Example 8A.2], the “% Axl tyrosine kinase inhibition at 1 μM concentration” value was 99.2%. Take `Nc1ncc(-c2cccc(N3CCOCC3)c2)cc1-c1nc2cnccc2o1` [Example 8A.4]: the “% Axl tyrosine kinase inhibition at 1 μM concentration” value amounted to 89.8%. In the case of `Nc1ncc(-c2ccc(CO)s2)cc1-c1nc2cnccc2o1` [Example 8A.5], the “% Axl tyrosine kinase inhibition at 1 μM concentration” value turned out to be 96.8%. As for `CNS(=O)(=O)c1cccc(-c2cnc(N)c(-c3nc4cnccc4o3)c2)c1` [Example 8A.6], the “% Axl tyrosine kinase inhibition at 1 μM concentration” value amounted to 97.7%. Consider `Nc1ncc(-c2cccc(C(=O)NC3CC3)c2)cc1-c1nc2cnccc2o1` [Example 8A.7], for which the “% Axl tyrosine kinase inhibition at 1 μM concentration” value is 87.8%. Same read-out and setting: the same measure for `Nc1ncc(-c2ccc(C(=O)N3CCC(O)CC3)cc2)cc1-c1nc2cnccc2o1` [Example 8A.8]: 97.1%; for `NC(=O)c1ccc(-c2cnc(N)c(-c3nc4cnccc4o3)c2)cc1` [Example 8A.9]: 98.7%; for `Cc1ccc(S(=O)(=O)N2CCOCC2)cc1-c1cnc(N)c(-c2nc3cnccc3o2)c1` [Example 8A.10]: 13.1***** %. As for `N#Cc1cccc(-c2cnc(N)c(-c3nc4cnccc4o3)c2)c1` [Example 8A.11], the “% Axl tyrosine kinase inhibition at 1 μM concentration” value is 89.6%. For the molecule `Nc1ncc(-c2ccc(C(=O)N3CCOCC3)cc2)cc1-c1nc2cnccc2o1` [Example 8A.12], the “% Axl tyrosine kinase inhibition at 1 μM concentration” value was 97.8%.

In the case of `Nc1ncc(-c2cccc(S(=O)(=O)N3CCOCC3)c2)cc1-c1nc2cnccc2o1` [Example 8A.13], the “% Axl tyrosine kinase inhibition at 1 μM concentration” value came to 71.3%.

Take `N#CCc1ccc(-c2cnc(N)c(-c3nc4cnccc4o3)c2)cc1` [Example 8A.16]: the “% Axl tyrosine kinase inhibition at 1 μM concentration” value was 99.4%.

As for `CN(C)CCCNC(=O)c1ccc(-c2cnc(N)c(-c3nc4cnccc4o3)c2)cc1` [Example 8A.17], the “% Axl tyrosine kinase inhibition at 1 μM concentration” value was found to be 99.8%.

Consider `Nc1ncc(-c2ccc(CN3CCOCC3)cc2)cc1-c1nc2cnccc2o1` [Example 8A.18], for which the “% Axl tyrosine kinase inhibition at 1 μM concentration” value is 98.9%.

Turning to `CN1CCN(C(=O)c2cccc(-c3cnc(N)c(-c4nc5cnccc5o4)c3)c2)CC1` [Example 8A.19], the “% Axl tyrosine kinase inhibition at 1 μM concentration” value is 94.3%.

Take `Nc1ncc(-c2cccc(CN3CCCCC3)c2)cc1-c1nc2cnccc2o1` [Example 8A.20]: the “% Axl tyrosine kinase inhibition at 1 μM concentration” value is on record as 95.2%.

`Nc1ncc(-c2cccc(N3CCCCC3)c2)cc1-c1nc2cnccc2o1` [Example 8A.21]: the “% Axl tyrosine kinase inhibition at 1 μM concentration” value stood at 85.8%. On to `Nc1ncc(-c2cccc(C(=O)NCCN3CCCC3)c2)cc1-c1nc2cnccc2o1` [Example 8A.22], for which the “% Axl tyrosine kinase inhibition at 1 μM concentration” value is listed as 95.3%. Still for that read-out and setting: next, `NCc1ccc(-c2cnc(N)c(-c3nc4cnccc4o3)c2)cc1` [Example 8A.23]: 99.1%; `CN(C)CCNC(=O)c1cccc(-c2cnc(N)c(-c3nc4cnccc4o3)c2)c1` [Example 8A.24]: 95.6%. Still for that read-out and setting: next, `Nc1ncc(-c2ccc(C(=O)NCCO)cc2)cc1-c1nc2cnccc2o1` [Example 8A.25]: 98.7%; `Nc1ncc(-c2cccc(NC(=O)C3CCNCC3)c2)cc1-c1nc2cnccc2o1` [Example 8A.26]: 97.9%. For the molecule `NCc1cccc(-c2cnc(N)c(-c3nc4cnccc4o3)c2)c1` [Example 8A.27], the “% Axl tyrosine kinase inhibition at 1 μM concentration” value turned out to be 98.6%. Same read-out and setting: the same measure for `Nc1ncc(-c2cccc(-c3ccn[nH]3)c2)cc1-c1nc2cnccc2o1` [Example 8A.28]: 97.5%; for `N#Cc1cccc(-c2cnc(N)c(-c3nc4cccnc4o3)c2)c1` [Example 9A.1]: 89.8%. Still for that read-out and setting: next, `Nc1ncc(-c2ccc(C(=O)NCCO)cc2)cc1-c1nc2cccnc2o1` [Example 9A.2]: 97.0%. Take `CC(C)(C)OC(=O)N1CCC(C(=O)Nc2cccc(-c3cnc(N)c(-c4nc5cccnc5o4)c3)c2)CC1` [Example 9A.3]: the “% Axl tyrosine kinase inhibition at 1 μM concentration” value turned out to be 73.4%. For the molecule `CN(C)CCNC(=O)c1cccc(-c2cnc(N)c(-c3nc4cccnc4o3)c2)c1` [Example 9A.5], the “% Axl tyrosine kinase inhibition at 1 μM concentration” value amounted to 75.2%. As for `Nc1ncc(-c2ccc(C(=O)N3CCC(O)CC3)cc2)cc1-c1nc2cccnc2o1` [Example 9A.6], the “% Axl tyrosine kinase inhibition at 1 μM concentration” value is given as 95.6%. The same measure, in the same setting: next, `CCN(CC)CCNC(=O)c1cccc(-c2cnc(N)c(-c3nc4cccnc4o3)c2)c1` [Example 9A.7]: 91.7%.

The assay is the same for the next values; noted with them: test compound at 1 μM; first value quoted; read-out: % Axl tyrosine kinase inhibition at 1 μM concentration.
Regarding `Nc1ncc(-c2cnn(C3CCCCO3)c2)cc1-c1nc2ccccc2o1` (stereo not shown) [Example 2.55, 3-(1,3-benzoxazol-2-yl)-5-(1-tetrahydropyran-2-ylpyrazol-4-yl)pyridin-2-amine], the inhibition at 1 µM is 99.2%.

`CN1CCC(n2cc(-c3cnc(N)c(-c4nc5ccccc5o4)c3)cn2)CC1` [Example 3, 3-(1,3-Benzoxazol-2-yl)-5-[1-(1-methyl-4-piperidyl)pyrazol-4-yl]pyridin-2-amine]: the inhibition at 1 µM came out at 100%. Consider `CC(C)N1CCC(n2cc(-c3cnc(N)c(-c4nc5ccccc5o4)c3)cn2)CC1` [Example 5, 3-(1,3-Benzoxazol-2-yl)-5-[1-(1-isopropyl-4-piperidyl)pyrazol-4-yl]pyridin-2-amine], for which the inhibition at 1 µM was 100%. Take `CN1CCC(n2cc(-c3cnc(N)c(-c4nc5c(F)cccc5o4)c3)cn2)CC1` [Example 6, 3-(4-Fluoro-1,3-benzoxazol-2-yl)-5-[1-(1-methyl-4-piperidyl)pyrazol-4-yl]pyridin-2-amine]: the inhibition at 1 µM amounted to 99.9%. Still for that read-out and setting: the same measure for `Nc1ncc(-c2cnn(C3CCNCC3)c2)cc1-c1nc2cnccc2o1` [Example 8, 3-Oxazolo[4,5-c]pyridin-2-yl-5-[1-(4-piperidyl)pyrazol-4-yl]pyridin-2-amine]: 99.2%; for `Nc1ncc(-c2cnn(C3CCNCC3)c2)cc1-c1nc2cccnc2o1` [Example 9, 3-Oxazolo[5,4-b]pyridin-2-yl-5-[1-(4-piperidyl)pyrazol-4-yl]pyridin-2-amine]: 98.8%.

The same assay, now with this note: test compound at 30 μM.
As to `CS(=O)(=O)c1cccc(-c2cnc(N)c(-c3nc4cnccc4o3)c2)c1` [Example 8A.3], the “% of Axl tyrosine kinase activity inhibited at a concentration of 30 μM” value was “^###the compound disclosed in Example 8A.3 inhibited 100% of Axl tyrosine kinase activity at a concentration of 30 μM”.

With `Cc1ccc(S(=O)(=O)N2CCOCC2)cc1-c1cnc(N)c(-c2nc3cnccc3o2)c1` [Example 8A.10], the “% of Axl tyrosine kinase activity inhibited at a concentration of 30 μM” value is on record as “*****the compound disclosed in Example 8A.10 inhibited 79.5% of Axl tyrosine kinase activity at a concentration of 30 μM”.

Values taken from patent US8017611B2, “Pyridine and pyrazine derivatives -083” (AstraZeneca AB, priority 2007, dated 2011).
